Calls of active or inactive are those of the source.
Key:
[1] = target: T1, Trace amine-associated receptor 1 (Homo sapiens, UniProt Q96RJ0); experiment: Fluorescence-based cell-based high throughput dose response assay to identify agonists of the human trace amine associated receptor 1 (TAAR1).; format: functional
cells [2] = format: functional, cell-based
[3] = target: T1, Trace amine-associated receptor 1; experiment: Counterscreen for agonists of the human trace amine associated receptor 1 (hTAAR1): Fluorescence-based cell-based high throughput dose response assay to identify hTAAR1 agonist that also desensitize TAAR1 receptor response.; format: functional
cells [4] = format: functional, cell-based; remark: listed apart in the source
Beta-lactamase [5] = target: T2, Beta-lactamase (Salmonella choleraesuis (strain SC-B67), UniProt Q5J463)
Beta-lactamase [6] = target: T3, Beta-lactamase (Pseudomonas aeruginosa, UniProt Q79MP6)
[7] = target: T4, Carboxy-terminal domain RNA polymerase II polypeptide A small phosphatase 1 (Homo sapiens, UniProt Q9GZU7); experiment: CTDSP1 inhibitors, concentration-response, biochemical, absorbance readout, ultra-high-throughput screen actives (AID 540297); format: functional
T4 sequence (Q9GZU7 whole entry): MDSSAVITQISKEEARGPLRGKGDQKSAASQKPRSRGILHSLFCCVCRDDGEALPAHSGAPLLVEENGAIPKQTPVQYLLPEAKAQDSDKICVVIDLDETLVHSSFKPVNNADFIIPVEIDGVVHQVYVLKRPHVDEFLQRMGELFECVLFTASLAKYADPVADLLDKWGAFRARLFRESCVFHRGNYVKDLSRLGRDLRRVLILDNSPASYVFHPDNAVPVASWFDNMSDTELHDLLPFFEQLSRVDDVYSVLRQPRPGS

[8] = target: Tyrosine-protein phosphatase non-receptor type 5 (Homo sapiens, UniProt P54829); experiment: PTPN5 enzyme inhibition – biochemical, fluorescence intensity, uHTS hits, confirmation (AID 602372); format: functional; conditions: read-out: IC50_Mean
[9] = target: Tyrosine-protein phosphatase non-receptor type 11 (Homo sapiens, UniProt Q06124); experiment: PTPN11 enzyme inhibitors – biochemical, selectivity assay for STEP inhibitor project, dose response (AID 602367); format: functional; conditions: read-out: IC50_Mean
[10] = target: Dual specificity protein phosphatase 3 (Homo sapiens, UniProt P51452); experiment: VHR phosphatase inhibition, dose response, selectivity assay for STEP inhibitor project, biochemical (AID 602374); format: functional; conditions: read-out: IC50_Mean
[11] = target: T5, Tyrosine-protein phosphatase non-receptor type 22 (Homo sapiens, UniProt Q9Y2R2); experiment: lymphoid phosphatase LYP inhibitors – biochemical, selectivity assay for STEP inhibitor project, dose response (AID 624241); format: functional
T5 sequence (Q9Y2R2 whole entry): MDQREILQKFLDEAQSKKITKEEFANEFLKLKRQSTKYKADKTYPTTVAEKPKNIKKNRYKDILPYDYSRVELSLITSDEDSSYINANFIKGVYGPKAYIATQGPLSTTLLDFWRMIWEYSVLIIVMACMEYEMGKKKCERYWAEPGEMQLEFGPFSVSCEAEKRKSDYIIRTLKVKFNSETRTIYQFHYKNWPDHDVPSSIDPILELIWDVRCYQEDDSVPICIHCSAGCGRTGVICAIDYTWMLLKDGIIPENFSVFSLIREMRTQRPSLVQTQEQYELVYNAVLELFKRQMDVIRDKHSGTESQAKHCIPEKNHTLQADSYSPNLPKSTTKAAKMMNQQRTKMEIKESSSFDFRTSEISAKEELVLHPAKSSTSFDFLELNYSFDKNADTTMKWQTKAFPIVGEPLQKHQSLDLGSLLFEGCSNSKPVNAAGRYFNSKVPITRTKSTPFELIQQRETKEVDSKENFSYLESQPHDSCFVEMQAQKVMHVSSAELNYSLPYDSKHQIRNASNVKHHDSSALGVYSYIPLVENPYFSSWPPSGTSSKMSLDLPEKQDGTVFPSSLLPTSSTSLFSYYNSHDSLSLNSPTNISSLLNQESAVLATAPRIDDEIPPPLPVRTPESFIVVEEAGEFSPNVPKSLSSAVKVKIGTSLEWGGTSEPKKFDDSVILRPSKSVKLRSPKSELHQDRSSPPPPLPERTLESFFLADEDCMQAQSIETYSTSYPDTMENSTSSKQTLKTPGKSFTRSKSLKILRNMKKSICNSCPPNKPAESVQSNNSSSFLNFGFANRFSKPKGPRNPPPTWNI

[12] = Luminescence-based dose response cell-based high throughput screening assay for cytotoxic compounds using the IEC-6 intestinal epithelial cell line. [Related pubchem assays: 1858 (Summary AID.), 1825 (Counterscreen.), 1907 (Confirmation screen.)]; format: functional
cells [13] = format: functional, cell-based; remark: listed apart in the source
[14] = rise of 2N DNA cells, HeLa – IC50, dose response (AID 1117349); format: functional, cell-based
[15] = target: T6, Nuclear receptor subfamily 0 group B member 1 (Homo sapiens, UniProt P51843); format: functional, cell-based;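 further: HEK293T cells transfected with SF-1 and DAX-1 plus StAR promoter luciferase reporter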
T6 sequence (P51843 whole entry): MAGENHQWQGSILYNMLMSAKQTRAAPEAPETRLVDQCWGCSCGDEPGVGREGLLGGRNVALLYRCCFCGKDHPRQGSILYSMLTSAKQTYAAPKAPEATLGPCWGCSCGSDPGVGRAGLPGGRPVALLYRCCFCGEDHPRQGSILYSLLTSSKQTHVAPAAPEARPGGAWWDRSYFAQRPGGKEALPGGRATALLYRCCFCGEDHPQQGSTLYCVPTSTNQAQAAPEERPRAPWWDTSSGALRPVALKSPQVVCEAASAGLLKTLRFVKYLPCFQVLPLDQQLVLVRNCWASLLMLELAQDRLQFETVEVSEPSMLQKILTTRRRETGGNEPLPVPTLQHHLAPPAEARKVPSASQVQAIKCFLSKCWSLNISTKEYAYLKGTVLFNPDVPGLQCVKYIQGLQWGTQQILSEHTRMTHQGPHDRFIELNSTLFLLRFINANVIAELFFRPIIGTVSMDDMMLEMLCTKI

Cytochrome P450 2D6 = Cytochrome P450 2D6 (Homo sapiens, UniProt P10635);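 further: CYP2D6 member of a cytochrome P450 panel assay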
P388/ADR = experiment: cells; format: functional; conditions: Mus musculus
Paired box protein Pax-8 = Paired box protein Pax-8 (Homo sapiens, UniProt Q06710); experiment: PAX8 transcriptional activity inhibition in RMG-I – RMG-I cells, luciferase, cherry-pick, dose response (AID 687027); format: functional, cell-based;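 further: luciferase reporter driven by Pax8 target thyroperoxidase promoter measured by SteadyGlo luminescence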
P388 = experiment: cells; format: functional; conditions: Mus musculus
SN12K1 = experiment: cells; format: functional; conditions: Homo sapiens
[16] = HEK-293T viability loss after treatment – luminescence, T-cell screen hits, cytotoxicity control for TCR NF-kB inhibitor project, dose response (AID 489026); format: functional, cell-based;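 further: cells exposed to compound about 14 hours before the viability readout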
Cytochrome P450 2C9 = Cytochrome P450 2C9 (Homo sapiens, UniProt P11712)
Beta-lactamase [17] = target: T2, Beta-lactamase; experiment: Epi-absorbance-based counterscreen for selective VIM-2 inhibitors: dose response biochemical high throughput screening assay to identify inhibitors of TEM-1 serine-beta-lactamase.
Beta-lactamase [18] = target: T3, Beta-lactamase; experiment: inhibition of IMP-1 beta-lactamase activity – biochemical, epi-absorbance, selectivity assay for VIM-2 inhibitor project, dose response (AID 1920)
Beta-lactamase [19] = target: T3, Beta-lactamase; experiment: […] counterscreen for selective VIM-2 inhibitors: dose response biochemical high throughput screening assay to identify inhibitors of IMP-1 metallo-beta-lactamase.
Prothrombin = Prothrombin (Bos taurus, UniProt P00735); experiment: thrombin protease inhibitors – biochemical, fluorescence polarization, uHTS hits, dose response (AID 602369); format: functional
Albumin = Albumin (Bos taurus, UniProt P02769); experiment: Counterscreen for inhibitors of T-cell receptor (TCR)-CD3 interaction: Fluorescence-based biochemical high throughput dose response assay to identify inhibitors of T-cell receptor (TCR)-CD3 interaction using a TAMRA-labeled BSA probe.; format: functional
[20] = target: T7, Small ubiquitin-related modifier 1 (Homo sapiens, UniProt P63165); experiment: SUMO1 protein interaction blockers, potency – biochemical, fluorescence polarization, uHTS hits, dose response (AID 624382); format: functional; conditions: read-out: IC50_Mean
[21] = target: E3 ubiquitin-protein ligase XIAP (Homo sapiens, UniProt P98170); experiment: Counter Screen using XIAP-Bir3 for Chemical Antagonists of Bir1/2 domains of IAP-family anti-apoptotic proteins. [Related pubchem assays (depositor defined):AID1018, AID1449, AID1514, AID1638, AID1749, AID1750, AID488957, AID488963]
[22] = target: T7, Small ubiquitin-related modifier 1; experiment: SUMO1 protein-protein binding blockers, potency – biochemical, FRET, dose response (AID 624383); format: functional; conditions: read-out: IC50_Mean
[23] = target: 72 kDa type IV collagenase (Homo sapiens, UniProt P08253); experiment: Dose Response validation of uHTS RPN11 inhibitor hits using a MMP-2 Fluorescence assay.; format: functional
[24] = target: RNA-editing ligase 1, mitochondrial (Trypanosoma brucei brucei, UniProt P86926); experiment: inhibition of trypanosome RNA editing ligase – biochemical, fluorescence, Trypanosoma brucei, dose response (AID 1117295); format: functional
[25] = target: 26S proteasome non-ATPase regulatory subunit 14 (Homo sapiens, UniProt O00487); experiment: inhibition of proteasome subunit RPN11 – biochemical, fluorescence polarization, uHTS hits, confirmation (AID 602368); format: functional
[26] = target: Induced myeloid leukemia cell differentiation protein Mcl-1 (Homo sapiens, UniProt Q07820); format: functional
[27] = target: T8, Voltage-gated N-type calcium channel alpha-1B subunit/Amyloid beta A4 precursor protein-binding family A member 1 (Homo sapiens, UniProt Q00975+Q02410); format: protein assay
[28] = target: T8, Voltage-gated N-type calcium channel alpha-1B subunit/Amyloid beta A4 precursor protein-binding family A member 1; format: protein assay; remark: listed apart in the source
[29] = target: Beta-2 adrenergic receptor (Homo sapiens, UniProt P07550); experiment: Dose response for HTS for Beta-2AR agonists via FAP method from Powderset3.; format: functional
Ephrin type-A receptor 4 = Ephrin type-A receptor 4 (Mus musculus, UniProt Q03137); experiment: EphA4 ligand-binding antagonists – biochemical, colorimetric, mouse EphA4, primary screen (AID 689); format: functional
[30] = target: T9, Matrix metalloproteinase-14 (Homo sapiens, UniProt P50281); experiment: Dose Response confirmation of uHTS hits for a small molecule inhibitors of MT1-MMP activation in a fluorescence assay set 1.; format: functional
[31] = target: T9, Matrix metalloproteinase-14; experiment: SAR confirmation of uHTS hits for a small molecule inhibitors of MT1-MMP activation in a fluorescence assay.; format: functional
Beta-galactosidase = Beta-galactosidase (Escherichia coli, UniProt Q8VNN2); experiment: Dose response counterscreen for EBI2 assay utilizing the enzyme, b-galactosidase.; format: functional

T3 sequence (Q79MP6 whole entry, the tested form may be a part): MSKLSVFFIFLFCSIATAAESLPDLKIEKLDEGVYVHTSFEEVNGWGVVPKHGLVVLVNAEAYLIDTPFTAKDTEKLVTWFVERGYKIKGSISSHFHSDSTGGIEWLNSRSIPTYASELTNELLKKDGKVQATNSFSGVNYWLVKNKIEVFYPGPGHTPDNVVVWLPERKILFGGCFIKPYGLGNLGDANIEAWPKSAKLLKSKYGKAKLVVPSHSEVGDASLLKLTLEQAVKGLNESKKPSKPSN
T1 sequence (Q96RJ0 whole entry): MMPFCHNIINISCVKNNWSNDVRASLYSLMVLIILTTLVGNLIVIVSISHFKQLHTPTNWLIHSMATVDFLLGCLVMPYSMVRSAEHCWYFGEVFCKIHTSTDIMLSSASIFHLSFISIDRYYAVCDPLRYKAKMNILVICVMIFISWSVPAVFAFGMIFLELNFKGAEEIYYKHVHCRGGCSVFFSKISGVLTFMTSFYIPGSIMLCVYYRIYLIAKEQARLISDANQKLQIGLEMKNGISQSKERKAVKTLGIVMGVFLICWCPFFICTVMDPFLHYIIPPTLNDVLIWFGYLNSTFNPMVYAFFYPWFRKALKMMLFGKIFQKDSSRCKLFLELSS
T7 sequence (P63165 whole entry): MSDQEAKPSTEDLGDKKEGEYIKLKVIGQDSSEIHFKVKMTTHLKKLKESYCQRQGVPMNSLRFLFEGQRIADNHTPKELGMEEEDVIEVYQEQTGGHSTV
T8 sequence (Q00975 whole entry): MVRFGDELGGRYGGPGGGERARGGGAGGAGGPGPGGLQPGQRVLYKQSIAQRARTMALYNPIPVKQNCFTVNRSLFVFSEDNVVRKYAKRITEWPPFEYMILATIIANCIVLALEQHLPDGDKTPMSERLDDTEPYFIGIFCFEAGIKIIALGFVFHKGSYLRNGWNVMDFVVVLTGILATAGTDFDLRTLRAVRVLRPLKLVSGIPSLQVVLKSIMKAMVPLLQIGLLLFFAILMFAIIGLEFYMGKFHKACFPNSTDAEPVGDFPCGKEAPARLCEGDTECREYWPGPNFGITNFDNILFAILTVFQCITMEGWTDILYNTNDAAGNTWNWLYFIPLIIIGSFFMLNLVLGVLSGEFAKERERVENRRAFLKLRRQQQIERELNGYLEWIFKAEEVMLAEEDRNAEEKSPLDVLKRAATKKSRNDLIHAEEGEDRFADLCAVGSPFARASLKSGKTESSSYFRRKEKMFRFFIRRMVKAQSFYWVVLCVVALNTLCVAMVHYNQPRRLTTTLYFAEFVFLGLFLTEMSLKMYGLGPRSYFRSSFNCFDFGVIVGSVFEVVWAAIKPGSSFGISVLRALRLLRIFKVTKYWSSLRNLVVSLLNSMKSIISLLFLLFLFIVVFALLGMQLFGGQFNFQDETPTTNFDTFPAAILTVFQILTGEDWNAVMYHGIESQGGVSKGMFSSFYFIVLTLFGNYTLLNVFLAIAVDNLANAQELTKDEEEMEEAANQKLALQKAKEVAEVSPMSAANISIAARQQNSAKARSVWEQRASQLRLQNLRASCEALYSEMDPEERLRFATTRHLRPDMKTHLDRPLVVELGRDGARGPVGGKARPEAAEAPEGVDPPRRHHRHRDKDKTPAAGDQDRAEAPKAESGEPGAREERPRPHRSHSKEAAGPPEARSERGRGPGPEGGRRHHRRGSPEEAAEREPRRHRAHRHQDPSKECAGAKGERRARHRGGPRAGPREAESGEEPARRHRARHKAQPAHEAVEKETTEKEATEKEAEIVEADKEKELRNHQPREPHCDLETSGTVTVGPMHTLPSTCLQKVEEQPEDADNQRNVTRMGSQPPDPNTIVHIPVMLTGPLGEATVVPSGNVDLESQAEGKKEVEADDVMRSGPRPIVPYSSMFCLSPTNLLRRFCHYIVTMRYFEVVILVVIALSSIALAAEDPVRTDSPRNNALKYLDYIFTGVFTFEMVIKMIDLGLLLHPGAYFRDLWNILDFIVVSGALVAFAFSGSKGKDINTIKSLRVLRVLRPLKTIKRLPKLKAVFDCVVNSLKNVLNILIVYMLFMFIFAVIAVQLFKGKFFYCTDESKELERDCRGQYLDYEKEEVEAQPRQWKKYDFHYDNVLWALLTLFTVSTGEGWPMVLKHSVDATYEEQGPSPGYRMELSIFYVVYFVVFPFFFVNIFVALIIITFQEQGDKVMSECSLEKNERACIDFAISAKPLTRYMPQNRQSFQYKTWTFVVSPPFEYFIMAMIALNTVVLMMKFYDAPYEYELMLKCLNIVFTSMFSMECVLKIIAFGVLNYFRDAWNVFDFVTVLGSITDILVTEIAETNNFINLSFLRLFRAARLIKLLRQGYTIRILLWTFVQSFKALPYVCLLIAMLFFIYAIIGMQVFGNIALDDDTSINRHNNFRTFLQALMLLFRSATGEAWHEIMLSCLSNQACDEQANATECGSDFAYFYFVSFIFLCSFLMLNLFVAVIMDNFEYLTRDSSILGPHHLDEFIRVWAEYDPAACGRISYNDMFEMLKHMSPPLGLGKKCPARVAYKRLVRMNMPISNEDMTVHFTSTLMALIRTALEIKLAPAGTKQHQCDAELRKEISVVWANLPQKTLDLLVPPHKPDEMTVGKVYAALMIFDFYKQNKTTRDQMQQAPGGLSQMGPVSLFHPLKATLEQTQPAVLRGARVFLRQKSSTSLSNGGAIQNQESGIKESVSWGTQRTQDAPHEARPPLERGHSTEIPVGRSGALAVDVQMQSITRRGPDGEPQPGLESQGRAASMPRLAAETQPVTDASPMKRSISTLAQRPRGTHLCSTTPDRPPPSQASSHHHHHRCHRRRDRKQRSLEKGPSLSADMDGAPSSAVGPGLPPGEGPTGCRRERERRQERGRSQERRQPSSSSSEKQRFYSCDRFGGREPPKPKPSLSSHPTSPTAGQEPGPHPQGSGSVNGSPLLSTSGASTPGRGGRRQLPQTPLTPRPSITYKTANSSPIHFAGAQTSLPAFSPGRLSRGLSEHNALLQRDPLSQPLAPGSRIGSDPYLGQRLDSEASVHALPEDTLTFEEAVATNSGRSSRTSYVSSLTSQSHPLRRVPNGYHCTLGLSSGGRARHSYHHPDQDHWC
T8 sequence (Q02410 whole entry): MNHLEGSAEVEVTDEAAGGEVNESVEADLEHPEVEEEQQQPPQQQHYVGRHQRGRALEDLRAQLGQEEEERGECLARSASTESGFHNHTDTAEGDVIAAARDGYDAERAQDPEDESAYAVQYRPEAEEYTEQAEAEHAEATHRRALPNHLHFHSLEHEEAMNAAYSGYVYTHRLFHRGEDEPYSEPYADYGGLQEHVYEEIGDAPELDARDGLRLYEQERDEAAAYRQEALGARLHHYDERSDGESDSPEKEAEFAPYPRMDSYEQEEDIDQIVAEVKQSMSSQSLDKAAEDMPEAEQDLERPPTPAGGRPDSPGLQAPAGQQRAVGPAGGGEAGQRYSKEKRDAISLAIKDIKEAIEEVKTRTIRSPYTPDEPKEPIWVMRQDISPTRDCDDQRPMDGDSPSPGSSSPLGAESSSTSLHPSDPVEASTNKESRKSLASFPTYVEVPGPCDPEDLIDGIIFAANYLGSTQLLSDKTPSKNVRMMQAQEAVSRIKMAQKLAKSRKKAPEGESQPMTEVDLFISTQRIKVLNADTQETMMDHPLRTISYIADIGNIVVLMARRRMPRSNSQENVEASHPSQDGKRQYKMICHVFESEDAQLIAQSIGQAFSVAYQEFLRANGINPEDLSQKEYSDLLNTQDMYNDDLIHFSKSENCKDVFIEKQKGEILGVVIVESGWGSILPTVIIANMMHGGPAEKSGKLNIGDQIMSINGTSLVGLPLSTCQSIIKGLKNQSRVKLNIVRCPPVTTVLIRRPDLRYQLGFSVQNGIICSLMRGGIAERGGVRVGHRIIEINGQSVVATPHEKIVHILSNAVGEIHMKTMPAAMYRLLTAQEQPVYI
T2 sequence (Q5J463 whole entry): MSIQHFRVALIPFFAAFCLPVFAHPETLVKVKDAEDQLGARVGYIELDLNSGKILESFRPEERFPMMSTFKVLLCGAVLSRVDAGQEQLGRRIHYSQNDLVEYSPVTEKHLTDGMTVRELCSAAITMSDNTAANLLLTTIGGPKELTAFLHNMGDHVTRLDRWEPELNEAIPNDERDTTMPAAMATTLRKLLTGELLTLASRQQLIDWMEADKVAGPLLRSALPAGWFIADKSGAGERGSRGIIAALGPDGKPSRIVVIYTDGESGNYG
Sequence of 26S proteasome non-ATPase regulatory subunit 14 (O00487 whole entry): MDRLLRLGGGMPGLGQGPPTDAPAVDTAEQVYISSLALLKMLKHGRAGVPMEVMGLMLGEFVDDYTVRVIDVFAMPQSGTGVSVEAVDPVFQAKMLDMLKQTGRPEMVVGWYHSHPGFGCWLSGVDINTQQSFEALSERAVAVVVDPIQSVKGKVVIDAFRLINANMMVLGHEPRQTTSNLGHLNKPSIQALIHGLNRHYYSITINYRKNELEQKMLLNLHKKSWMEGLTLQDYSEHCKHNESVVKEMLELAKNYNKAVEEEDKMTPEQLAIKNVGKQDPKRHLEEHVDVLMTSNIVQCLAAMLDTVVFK
Sequence of Paired box protein Pax-8 (Q06710 whole entry): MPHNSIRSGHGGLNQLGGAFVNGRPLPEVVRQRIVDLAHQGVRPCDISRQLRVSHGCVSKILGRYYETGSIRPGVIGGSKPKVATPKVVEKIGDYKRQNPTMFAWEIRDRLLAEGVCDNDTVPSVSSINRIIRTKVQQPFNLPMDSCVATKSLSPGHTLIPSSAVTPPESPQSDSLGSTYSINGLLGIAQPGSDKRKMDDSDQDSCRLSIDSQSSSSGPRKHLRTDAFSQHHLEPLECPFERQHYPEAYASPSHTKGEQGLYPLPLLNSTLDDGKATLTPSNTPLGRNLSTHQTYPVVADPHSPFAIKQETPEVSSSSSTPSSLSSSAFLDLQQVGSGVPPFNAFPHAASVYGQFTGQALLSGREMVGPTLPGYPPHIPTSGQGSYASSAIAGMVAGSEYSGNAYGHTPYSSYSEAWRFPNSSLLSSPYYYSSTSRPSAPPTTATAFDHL

O=C(N[C@@H](Cc1cccnc1)C(=O)N1CCC[C@H]1C(=O)NCCc1ccccc1Cl)c1ccc(Cl)cc1Cl
EC50 [1]: 4.03 µM (active)
IC50 (cells [2]): > 29.9 µM (inactive)
IC50 [3]: 2.94 µM (active)
EC50 (cells [4]): > 29.9 µM (inactive)

Cn1cc(/C=C(\C(=O)O)C(C(=O)O)=C2CCCCC2)c2ccccc21
IC50 (Beta-lactamase [5]): > 59.6 µM (inactive)
IC50 (Beta-lactamase [6]): > 59.6 µM (inactive)

O=C(O)CC/C(=N\Nc1ccc(S(=O)(=O)N2CCCC2)cc1[N+](=O)[O-])c1cccs1
IC50 [7]: 15.5 µM (active)
IC50 [8]: 19 µM (active)
IC50 [9]: 14.5 µM (active)
IC50 [10]: 15.6 µM (active)
IC50 [11]: 34.5 µM (inactive)

COc1cc2c(c(OC)c1OC)-c1ccc(OC)c(=O)cc1[C@@H](NC(C)=O)CC2 [COLCHICINE]
IC50 [12]: 0.0628 µM (active)
IC50 (cells [13]): > 67.6 µM (inactive)
IC50 [14]: 0.0017 µM (active)
IC50 [15]: > 67.6 µM (inactive)
AC50 (Cytochrome P450 2D6): 0.794 µM (active)
GI50 (P388/ADR): 1.36 µM (inactive)
AC50 (Paired box protein Pax-8): < 0.26 µM (active)
GI50 (P388): 0.0625 µM (active)
GI50 (SN12K1): < 0.0625 µM (active)
IC50 [16]: > 80 µM (inactive)
AC50 (Cytochrome P450 2C9): 3.16 µM (active)

Sc1nnc(-c2ccc3ccccc3n2)n1-c1ccc2c(c1)OCCO2
IC50 (Beta-lactamase [17]): > 59.6 µM (inactive)
IC50 (Beta-lactamase [18]): > 59.6 µM (inactive)
IC50 (Beta-lactamase [19]): > 59.6 µM (inactive)

NS(=O)(=O)c1ccc(NC(=O)c2cccc(N3C(=O)c4ccccc4C3=O)c2)cc1
IC50 (Prothrombin): > 100 µM (inactive)
IC50 (Albumin): > 94.1 µM (inactive)
IC50 [20]: > 66.6 µM (inactive)
IC50 [21]: > 20 µM (inactive)
IC50 [22]: 14.4 µM (active)
IC50 [23]: > 100 µM (inactive)
IC50 [24]: 30.8 µM (inactive)
IC50 [25]: 40.2 µM (active)

CSc1nc(SCCO)c2sc3nc(-c4ccco4)c4c(c3c2n1)CC(C)(C)OC4
IC50 [26]: 1.54 µM (active)
IC50 [7]: 3.01 µM (active)
IC50 [27]: > 56.8 µM (not active)
IC50 [28]: 14.3 µM (active)
EC50 [29]: 1.81 µM (active)
IC50 (Ephrin type-A receptor 4): 6.73 µM (active)

CCn1c(=O)c(=O)[nH]c2cc(C(=O)NC3CCCc4ccccc43)ccc21 (configuration not stated)
IC50 [30]: 26.7 µM (inactive)
IC50 [31]: 29.1 µM (inactive)

CCN1CCN(C(=O)/C=C/c2ccc(C)cc2)CC1
IC50 (Beta-galactosidase): > 80 µM (inactive)
